Target: T1, Recombinant human mPGES-1 (Homo sapiens, UniProt O14684)
T1 construct: made in house; host or cells: CHO cells
T1 sequence (O14684 1-152): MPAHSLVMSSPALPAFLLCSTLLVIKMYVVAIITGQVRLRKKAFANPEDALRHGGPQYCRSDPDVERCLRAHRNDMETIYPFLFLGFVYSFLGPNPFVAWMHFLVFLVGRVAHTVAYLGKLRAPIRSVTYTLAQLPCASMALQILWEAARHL
Assay: In-vitro mPGES-1 inhibitor screening (inhibition of PGE2 formation from PGH2, HTRF detection)
Type: biochemical
Details: for inhibition at 1 µM: 1 μM test compound, read-out: Percentage inhibition at 1 μM; for inhibition at 1 µM / inhibition at 10 µM: crude microsomal fraction, 15 μM PGH2; for inhibition at 10 µM: 10 μM test compound, read-out: Percentage inhibition at 10 μM; for IC50: class symbol, concentration response curve
How it was run: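 PGE2 formation measured by HTRF after 1 min reaction with 15 μM PGH2, stopped with stannous chloride (11 mg/ml). Beforehand, compound and crude CHO-expressed human mPGES-1 microsomes (40-60 μg/mL) sat 10 min in phosphate/EDTA buffer with 2.5 mM GSH (0.5% DMSO final). IC50 fitted from concentration-response of % inhibition.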

inhibition at 1 µM [%]	inhibition at 10 µM [%]	IC50 [nM]	Structure (SMILES)
99.8	100	< 50	Cc1ccc(CNC(=O)C(C)(C)C)c(C)c1C(=O)Nc1cccc2c(NC(C)(C)C)ncnc12 [Example-68, N-(4-(tert-Butylamino)quinazolin-8-yl)-2,6-dimethyl-3-(pivalamidomethyl)benzamide]
90.6	94.5	< 50	CC(C)Nc1ncnc2c(NC(=O)c3c(Cl)ccc(CNC(=O)C(C)(C)C)c3F)cccc12 [Example-64, 6-Chloro-2-fluoro-N-(4-(isopropylamino)quinazolin-8-yl)-3-(pivalamidomethyl)benzamide]
94.1	99.8	< 50	CC(C)(C)C(=O)NCc1ccc(Cl)c(C(=O)Nc2cccc3cccnc23)c1F [Example-55, 6-Chloro-2-fluoro-3-(pivalamidomethyl)-N-(quinolin-8-yl)benzamide]
83.3	94.8	< 50	CC(C)C(=O)NCc1cnc(C(F)F)c(C(=O)Nc2cccc3c(NCC(F)(F)F)ncnc23)c1 [Example-78, 2-(Difluoromethyl)-5-(isobutyramidomethyl)-N-(4-((2,2,2-trifluoroethyl)amino)quinazolin-8-yl)nicotinamide]
100	97.3	< 50	CC(C)(C)Nc1ncnc2c(NC(=O)c3cc(CNC(=O)C(C)(C)C)c(F)cc3Cl)cccc12 [Example-71, N-(4-(tert-Butylamino)quinazolin-8-yl)-2-chloro-4-fluoro-5-(pivalamidomethyl)benzamide]

The remaining lines, values behind:

Structure (SMILES)	inhibition at 1 µM [%]	inhibition at 10 µM [%]	IC50 [nM]
CC(C)(C)C(=O)NCc1ccc(Cl)c(C(=O)Nc2cccc3c(Oc4cccc(C(F)(F)F)c4)nccc23)n1 [Example-6, 3-Chloro-6-(pivalamidomethyl)-N-(1-(3-(trifluoromethyl)phenoxy)isoquinolin-5-yl)picolinamide]	93	95.9	50 to 100
CC1(C)CCC(Nc2ncnc3c(NC(=O)c4c(Cl)ccc(CNC(=O)C(C)(C)C)c4F)cccc23)CC1 [Example-22, 6-Chloro-N-(4-((4,4-dimethylcyclohexyl)amino)quinazolin-8-yl)-2-fluoro-3-(pivalamidomethyl)benzamide]	100	99.6	< 50
CC(C)(C)C(=O)NCc1ccc(Cl)c(C(=O)Nc2cccc3c(Nc4cccc(C(F)(F)F)c4)nccc23)n1 [Example-2, 3-Chloro-6-(pivalamidomethyl)-N-(1-((3-(trifluoromethyl)phenyl)amino)isoquinolin-5-yl)picolinamide]	95.8	97.2	< 50
Cc1ccc(CNC(=O)C(C)(C)C)c(C)c1C(=O)Nc1cccc2c(Nc3cccc(C(F)(F)F)c3)nccc12 [Example-3, 2,6-Dimethyl-3-(pivalamidomethyl)-N-(1-((3-(trifluoromethyl)phenyl)amino)isoquinolin-5-yl)benzamide]	96	98.1	< 50
CC(C)(C)C(=O)NCc1ccc(Cl)c(C(=O)Nc2cccc3c(Nc4cccc(C(F)(F)F)c4)ccnc23)c1F [Example-31, 6-Chloro-2-fluoro-3-(pivalamidomethyl)-N-(4-((3-(trifluoromethyl)phenyl)amino)quinolin-8-yl)benzamide]	98.7	98.7	< 50
CC(C)(C)C(=O)NCc1ccc(Cl)c(C(=O)Nc2cccc3c(Nc4cccc(C(F)(F)F)c4)ncnc23)c1 [Example-13, 2-Chloro-5-(pivalamidomethyl)-N-(4-((3-(trifluoromethyl)phenyl)amino)quinazolin-8-yl)benzamide]	90.2	92.2	< 50

Reference: patent US9006257B2, “Bicyclic compounds as mPGES-1 inhibitors” (Glenmark Pharmaceuticals S.A., priority 2012, dated 2015)
